Patent US20040009933A1, “Fluorescent nitrogenous base and nucleosides incorporating same” (Glen Research Corporation, priority 2002, published 2004)
“Also recorded” adds a separate entry of the source. [pyrroloC] = pyrrolo-2'-deoxycytidine (fluorescent C analogue)

Experiments:
[1] = tested on: otherwise duplex hybrid, mismatched base adenosine; details: mismatched base is adenosine; cited from earlier work
AmpiTaq DNA polymerase = target: T1, AmpiTaq DNA polymerase (Thermus aquaticus, UniProt P19821); assay: PCR and sequencing with pyrrolo-dCTP replacing dCTP; format: biochemical; details: dye-terminator cycle sequencing of PCR product
T1 construct: purchased Applied Biosystems
T1 sequence (P19821 whole entry): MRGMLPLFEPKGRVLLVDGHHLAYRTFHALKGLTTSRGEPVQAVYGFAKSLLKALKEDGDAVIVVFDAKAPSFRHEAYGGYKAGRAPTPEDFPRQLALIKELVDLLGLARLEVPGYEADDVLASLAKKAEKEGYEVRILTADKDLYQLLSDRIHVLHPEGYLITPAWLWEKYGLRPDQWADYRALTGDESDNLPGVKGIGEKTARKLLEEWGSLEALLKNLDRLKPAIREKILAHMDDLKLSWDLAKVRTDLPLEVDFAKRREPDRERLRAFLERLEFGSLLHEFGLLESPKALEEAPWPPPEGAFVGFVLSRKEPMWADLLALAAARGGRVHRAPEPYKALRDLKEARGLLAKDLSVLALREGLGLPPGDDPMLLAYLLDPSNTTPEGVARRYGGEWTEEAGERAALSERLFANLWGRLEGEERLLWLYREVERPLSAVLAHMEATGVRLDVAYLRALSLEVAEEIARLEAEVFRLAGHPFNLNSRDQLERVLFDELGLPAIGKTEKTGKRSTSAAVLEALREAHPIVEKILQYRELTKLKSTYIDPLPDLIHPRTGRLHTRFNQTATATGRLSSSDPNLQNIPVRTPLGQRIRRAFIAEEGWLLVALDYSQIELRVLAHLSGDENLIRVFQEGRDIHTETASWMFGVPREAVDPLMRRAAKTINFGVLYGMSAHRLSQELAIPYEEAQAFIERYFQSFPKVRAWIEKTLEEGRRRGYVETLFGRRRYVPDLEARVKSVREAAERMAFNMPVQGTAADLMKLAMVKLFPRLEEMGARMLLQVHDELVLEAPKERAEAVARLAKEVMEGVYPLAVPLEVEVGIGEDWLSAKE
Text: The triphosphate of pyrrolo-dC (pyrrolo-dCTP) was synthesized and compared with dCTP for its ability to be recognized by polymerases and be incorporated as a dC into polymerase generated products. Nucleotide-triphosphate mixes containing either dCTP or pyrrolo-dCTP were used in amplification reactions similar to the ones above and the product analyzed by acrylamide gel.
The PCR and sequencing experiments in Example 15 were repeated to determine if polymerases incorporated pyrrolo-dCTP as efficiently as dCTP (FIGS. 7 & 8). Purified plasmid DNA with 500-600 bp inserts were amplified in a standard 25 μl PCR reaction. One of the primers was biotinylated to facilitate the post-reaction cleanup of the PCR product. AmpiTaq DNA polymerase (1.25 Units, Applied Biosystems) was used as enzyme with 200 μM final concentration of each dNTP. In the pyrrolo-dCTP samples the dCTP was replaced with 200 μM pyrrolo-dCTP. Following the PCR reaction (55° C. annealing for 20 sec, 72° C. extension for 45 sec, 30 cycles) an aliquot of the reaction was subjected to agarose gel electrophoresis to verify the size and quality of the product. […] An aliquot of the purified product, still attached to the magnetic beads, was sequenced in a standard fluorescent dye-terminator cycle sequencing reaction and analyzed on a Beckman CEQ2000XL DNA sequencer.

T7 RNA Polymerase = T7 RNA Polymerase (Escherichia phage T7, UniProt P00573); details: transcription bubble in elongation complexes; cited from earlier work
Chain of T7 RNA Polymerase (P00573 whole entry, the tested form may be a part): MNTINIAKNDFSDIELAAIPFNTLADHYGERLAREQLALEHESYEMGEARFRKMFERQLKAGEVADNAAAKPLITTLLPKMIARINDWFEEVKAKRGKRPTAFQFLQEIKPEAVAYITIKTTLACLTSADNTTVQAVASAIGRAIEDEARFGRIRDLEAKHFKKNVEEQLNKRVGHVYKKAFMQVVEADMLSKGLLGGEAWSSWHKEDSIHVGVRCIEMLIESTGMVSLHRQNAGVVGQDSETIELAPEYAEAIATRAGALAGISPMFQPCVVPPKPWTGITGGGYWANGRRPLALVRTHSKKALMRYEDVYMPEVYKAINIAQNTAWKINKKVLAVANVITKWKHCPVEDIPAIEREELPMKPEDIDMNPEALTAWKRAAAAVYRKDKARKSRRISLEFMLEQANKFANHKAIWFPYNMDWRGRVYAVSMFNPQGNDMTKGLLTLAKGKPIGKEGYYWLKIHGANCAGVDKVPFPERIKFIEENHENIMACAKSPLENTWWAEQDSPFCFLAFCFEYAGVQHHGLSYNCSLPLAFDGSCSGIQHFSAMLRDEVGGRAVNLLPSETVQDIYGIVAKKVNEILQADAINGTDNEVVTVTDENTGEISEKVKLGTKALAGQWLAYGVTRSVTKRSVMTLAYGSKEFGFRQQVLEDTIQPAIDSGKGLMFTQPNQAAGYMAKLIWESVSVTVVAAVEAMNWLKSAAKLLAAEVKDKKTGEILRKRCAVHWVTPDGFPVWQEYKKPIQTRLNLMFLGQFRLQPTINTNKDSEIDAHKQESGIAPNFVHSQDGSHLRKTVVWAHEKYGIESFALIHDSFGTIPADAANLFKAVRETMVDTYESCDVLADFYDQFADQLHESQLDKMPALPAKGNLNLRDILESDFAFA

polymerases = assay: Cycle sequencing of PCR fragments made with pyrrolo-dC substituted primer; format: biochemical; details: C in sense strand product, G in antisense strand product
Text: A series of tests was designed to determine if a pyrrolo-dC residue coded as dC for a dG. In this experiment a 100× diluted aliquot of the ˜500 nucleotide insert generated by the control T7 and Sp6 primers was further amplified using a biotinylated Sp6 primer and either a control 42 base M13-T7 primer or one with four pyrrolo-dC substitutions in the T7 sequence. The PCR product was captured on streptavidin beads, excess primers were removed by washing, and the suspension was divided into two portions. One reaction (the antisense strand) was sequenced using an M13 forward primer (using ABI dRhodamine chemistry); the other was sequenced (carried out using Beckman dye terminator chemistry) by using Sp6, after releasing the sense strand by heat denaturation of the immobilized PCR fragment.
Sequencing reactions (in duplicate) were carried out with PCR fragments to determine if pyrrolo-dC substitutes for dC. PCR fragments were generated by using, as template, a 100-fold dilution of the product of T7/bio-Sp6 reaction (similar to lane 5 above) and a primer pair of biotinylated Sp6 and the M13F-T7 (or its pyrrolo-dC-substituted homolog). The PCR fragment from this amplification was purified by streptavidin beads to remove excess primers and the suspension divided into two portions. […] Thus, under cycle sequencing conditions, the pyrrolo-dC residue is read as a dC.

[2] = Spectral properties of pyrrolo-dC (extinction coefficients, fluorescence quantum yield); format: physicochemical; details: for QY (quantum yield): relative to quinine sulfate in O.5 M H2SO4
Text: The spectral properties of pyrrolo-dC, coupled with its unique base-pairing ability, make this fluorescent analog extremely valuable in probing DNA structure. When the pyrrolo-dC is base-paired, its fluorescence can be reduced or quenched through what is most likely base stacking interactions (see Table I).

[3] = tested on: plasmid 600-nucleotide insert; assay: PCR assay: ability of pyrrolo-dC substituted T7 primers to amplify a plasmid insert; format: biochemical; details: primer dilution 4, 1.3, 0.4, 0.15 and 0.05 pmol, FIG. 4
Description: A series of tests were performed to test the ability of the T7 primers synthesized above to function in biological assays. In the first series of tests each of the T7 primers was evaluated in a PCR assay for their ability to amplify a plasmid insert. In the first experiment either the control or one of the experimental T7 forward primers, with one to four pyrrolo-dC substitutions, and an Sp6 reverse primer were tested for their ability to amplify a plasmid 600-nucleotide insert using supramaximal primer concentrations and the PCR products analyzed on an acrylamide gel. The sequences of the T7 forward primers are as follows: 5′-TAA TAC GAX TCA CTA TAG G-3′ (SEQ ID NO.: 6); 5′-TAA TAC GAX TXA CTA TAG G-3′ (SEQ ID NO.: 7); 5′-TAA TAX GAX TXA CTA TAG G-3′ (SEQ ID NO.: 8); 5′-TAA TAX GAX TXA XTA TAG G-3′ (SEQ ID NO.: 9); (control) 5′-TAA TAC GAC TCA CTA TAG G-3′ (SEQ ID NO.: 10), where X=pyrrolo-dC. Analysis of the stained gel was consistent with no differences in either the mobility or intensity of the stained bands corresponding to the 600-nucleotide PCR product generated by the control or experimental T7 primers.
The control and experimental T7 primers were next compared in another experiment using limiting concentrations of each of the T7 primers (1.3, 0.4, 0.15 and 0.05 pmole per reaction) and excess Sp6 primer. […]

[4] = tested on: polymerases Taq, Vent, Pfu; assay: PCR with different polymerases using T7 or T7-4 pyrrolo-dC primer; format: biochemical; details: biotinylated Sp6 reverse primer, ~500 nucleotide insert, Vent lower efficiency for both primers
Text: The control and experimental T7 primers were next compared in another experiment using limiting concentrations of each of the T7 primers (1.3, 0.4, 0.15 and 0.05 pmole per reaction) and excess Sp6 primer. […] Finally the control and T7 primer containing four pyrrolo-dC substitutions were compared in their ability to be recognized by a variety of polymerases, Taq from ABI, Vent from New England Biolabs and Pfu from Stratagene. In this case a biotinylated Sp6 primer was used as the reverse primer in the amplification reaction of a plasmid containing an approximately 500 nucleotide insert.
Experiments were carried out to examine the effect of substituted pyrrolo-dC primers on the activity of several polymerases. Three experiments were carried out to examine the ability of different polymerases (Taq, Vent, Pfu) to use the T7 or T7-4 pyrrolo-dC primer in PCR; the other primer in the pair was biotinylated Sp6. […] In FIG. 6, lane 1 is standards, lane 2 is T7-4 pyrrolo-dC primer with Taq (ABI), lane 3 is T7-4 pyrrolo-dC primer with Vent (NEB), lane 4 is T7-4 pyrrolo-dC primer with Pfu (Stratagene), lane 5 is T7 primer with Taq (ABI), lane 6 is T7 primer with Vent (NEB), lane 7 is T7 primer with Pfu (Stratagene), and lane 8 is standards.

[5] = tested on: complementary strands containing each of the four natural deoxyribonucleotide bases opposite pyrrolo-dC; assay: Hybridization specificity: melting temperature (Tm) of 19mer oligonucleotide containing a single pyrrolo-dC; format: binding
Description: The hybridization specificity of pyrrolo-dC was evaluated by determining the melting temperature (Tm) of a 19mer oligonucleotide with the sequence 5′-GCC TAA CTT CXG GAG ATG T-3′ (SEQ ID NO.: 1), where X is Pyrrolo-dC which contains a single pyrrolo-dC. This oligonucleotide was annealed to complementary strands containing each of the four natural deoxyribonucleotide bases opposite it. Hybridization was best with a strand containing dG opposite pyrrolo-dC and decreased in the order dG>dT>dA>dC (melting temperature Tm=65, 56, 55 and 52° C. respectively). The effect of multiple incorporations was next evaluated by synthesizing a T7 universal primer where dC was replaced with zero to four pyrrolo-dC residues. All five oligonucleotides had the same Tm as that of the control (57° C.) when hybridized with an oligonucleotide complementary to the T7 primer regardless of the number of pyrrolo-dC/dC substitutions.

Cc1cc2cn([C@H]3C[C@H](O)[C@@H](CO)O3)c(=O)nc2[nH]1 [Pyrrolo-dC, 6-Methyl-3-(β-D-2-deoxyribofuranosyl)pyrrolo[2,3-d]pyrimidin-2-one]
fluorescence when mismatched in an otherwise duplex hybrid [1]: higher than the single-stranded species
sequence of PCR product generated with the triphosphate (AmpiTaq DNA polymerase): specifically incorporated as a “dC” opposite a dG residue
increase in fluorescence as the polymerase induces melting (T7 RNA Polymerase): two-fold
how the residue is read under cycle sequencing conditions (polymerases): “read” as a dC; also recorded: read as a dC
E260 [2]: 4,000 LImol cm
E345 [2]: 3,700 L/mol cm
QY (quantum yield) ([2]; double-stranded): 0.02
QY (quantum yield) ([2]; single-stranded): 0.07

SEQ ID NO.:9: T7 forward primer 5′-TAA TAX GAX TXA XTA TAG G-3′, X=pyrrolo-dC; four substitutions (TAATACGACTCACTATAGG; DNA, [pyrroloC] at 6, 9, 11, 13, backbone not given here)
primer amount at which product formation sharply decreases [3]: around 0.15 pmol
ability to be used by polymerases in PCR versus unsubstituted T7 primer [4]: equivalence

SEQ ID NO.: 1: 19mer oligonucleotide 5′-GCC TAA CTT CXG GAG ATG T-3′, where X is Pyrrolo-dC
melting temperature Tm ([5]; dA opposite pyrrolo-dC): 55 °C
melting temperature Tm ([5]; dC opposite pyrrolo-dC): 52 °C
melting temperature Tm ([5]; dG opposite pyrrolo-dC): 65 °C
melting temperature Tm ([5]; dT opposite pyrrolo-dC): 56 °C
